From patent US20090143396A1, “Sulfonyl-Substituted Aryl Compounds as Modulators of Peroxisome Proliferator Activated Receptors” (priority 2005, published 2009)
pEC50: −log10 of the molar value.

What was measured:
Type in all cases: cell-based, murine and human
Conditions in all cases: GAL4 chimeric receptor, 20-24 hours treatment
PPAR-alpha = molecular target: T1, PPAR-alpha (UniProt Q07869); assay: Transient transfection transactivation assay in CV-1 cells, GAL4-PPAR-alpha LBD chimera, luciferase reporter
T1 sequence (Q07869 1-468): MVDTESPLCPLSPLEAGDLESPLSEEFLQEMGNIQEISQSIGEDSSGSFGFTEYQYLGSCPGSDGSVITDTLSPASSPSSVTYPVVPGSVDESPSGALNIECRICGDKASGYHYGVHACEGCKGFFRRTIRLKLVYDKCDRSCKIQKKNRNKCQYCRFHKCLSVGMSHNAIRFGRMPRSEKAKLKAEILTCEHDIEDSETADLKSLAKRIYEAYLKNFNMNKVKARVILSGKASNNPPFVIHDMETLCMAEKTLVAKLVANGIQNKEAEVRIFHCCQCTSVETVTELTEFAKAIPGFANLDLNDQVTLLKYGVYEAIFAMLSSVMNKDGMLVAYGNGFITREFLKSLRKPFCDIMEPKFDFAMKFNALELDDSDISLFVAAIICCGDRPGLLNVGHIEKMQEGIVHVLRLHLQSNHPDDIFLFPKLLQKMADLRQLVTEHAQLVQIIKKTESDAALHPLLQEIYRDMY
From the text: (§1) Compounds may be screened for functional potency in transient transfection assays in CV-1 cells for their ability to activate the PPAR subtypes (transactivation assay). A previously established chimeric receptor system was utilized to allow comparison of the relative transcriptional activity of the receptor subtypes on the same synthetic response element and to prevent endogenous receptor activation from complicating the interpretation of results. See, for example, Lehmann, J. M.; Moore, L. B.; Smith-Oliver, T. A; Wilkinson, W. O.; Willson, T. M.; Kliewer, S. A., An antidiabetic thiazolidinedione is a high affinity ligand for peroxisome proliferator-activated receptor […], J. Biol. Chem., 1995, 270, 12953-6. The ligand binding domains for murine and human PPAR-alpha, PPAR-gamma, and PPAR-delta are each fused to the yeast transcription factor GAL4 DNA binding domain. CV-1 cells were transiently transfected with expression vectors for the respective PPAR chimera along with a reporter construct containing four or five copies of the GAL4 DNA binding site driving expression of luciferase. After 8-16 h, the cells are replated into multi-well assay plates and the media is exchanged to phenol-red free DME medium supplemented with 5% delipidated calf serum. 4 hours after replating, cells were treated with either compounds or 1% DMSO for 20-24 hours. Luciferase activity was then assayed with Britelite (Perkin Elmer) following the manufacturer's protocol and measured with either the Perl in Elmer Viewlux or Molecular Devices Acquest (see, for example, Kliewer, S. A., et. al. Cell 1995, 83, 813-819). Rosiglitazone is used as a positive control in the […] assay. Wy-14643 and GW7647 is used as a positive control in the […] assay. GW501516 is used as the positive control in the PPARδ assay.
(§2) Compounds of Examples 1-10 were assayed to measure their biological activity with respect to their EC50 values and efficacy for modulating PPAR-alpha, PPAR-gamma, and PPAR-delta as set forth in Table 1.

PPAR-delta = molecular target: T2, PPAR-delta (UniProt Q03181); assay: Transient transfection transactivation assay in CV-1 cells, GAL4-PPAR-delta LBD chimera, luciferase reporter
T2 sequence (Q03181 1-441): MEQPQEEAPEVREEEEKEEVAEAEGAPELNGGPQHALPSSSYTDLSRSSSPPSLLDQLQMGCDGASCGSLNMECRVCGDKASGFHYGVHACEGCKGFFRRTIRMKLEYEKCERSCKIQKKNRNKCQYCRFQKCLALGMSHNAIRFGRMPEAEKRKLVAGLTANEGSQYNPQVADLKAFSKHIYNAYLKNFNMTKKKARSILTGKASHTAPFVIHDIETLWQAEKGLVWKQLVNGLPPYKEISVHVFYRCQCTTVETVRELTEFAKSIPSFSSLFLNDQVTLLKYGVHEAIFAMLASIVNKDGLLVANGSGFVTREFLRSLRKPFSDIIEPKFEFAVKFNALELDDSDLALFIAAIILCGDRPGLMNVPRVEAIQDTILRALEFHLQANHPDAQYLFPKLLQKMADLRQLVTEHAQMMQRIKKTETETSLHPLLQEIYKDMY
From the text: as §1, §2

PPAR-gamma = molecular target: T3, PPAR-gamma (UniProt P37231); assay: Transient transfection transactivation assay in CV-1 cells, GAL4-PPAR-gamma LBD chimera, luciferase reporter
T3 sequence (P37231 1-505): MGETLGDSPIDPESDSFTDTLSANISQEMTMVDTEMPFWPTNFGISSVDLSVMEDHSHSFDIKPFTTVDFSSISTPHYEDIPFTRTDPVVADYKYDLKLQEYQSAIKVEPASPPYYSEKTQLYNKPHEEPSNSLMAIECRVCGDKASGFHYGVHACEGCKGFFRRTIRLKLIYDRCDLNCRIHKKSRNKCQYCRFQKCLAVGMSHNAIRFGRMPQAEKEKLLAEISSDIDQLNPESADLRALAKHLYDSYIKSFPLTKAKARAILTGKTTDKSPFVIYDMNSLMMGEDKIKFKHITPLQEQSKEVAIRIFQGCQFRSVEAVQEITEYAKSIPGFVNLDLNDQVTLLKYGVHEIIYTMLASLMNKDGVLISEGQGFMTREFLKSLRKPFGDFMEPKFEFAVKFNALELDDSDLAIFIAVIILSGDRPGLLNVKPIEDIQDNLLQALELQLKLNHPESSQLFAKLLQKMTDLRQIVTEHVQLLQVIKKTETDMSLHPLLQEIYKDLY
From the text: as §1, §2

SMILES | pEC50 (PPAR-alpha) | pEC50 (PPAR-delta) | pEC50 (PPAR-gamma)
C#Cc1cc(CC(=O)O)cc(S(=O)(=O)N2CCN(Cc3ccc(OC(F)(F)F)cc3)CC2)c1 [Example 8, 2-{3-Ethynyl-5-[-4-(4-trifluoromethoxybenzyl)piperazine-1-ylsulfonyl]phenyl}acetic acid] | > 5.30 | > 5.30 | > 5.30
Cc1ccc(S(=O)(=O)N2[C@H](C)CN(Cc3ccc(OC(F)(F)F)cc3)C[C@@H]2C)cc1CC(=O)O [Example 1, {5-[2,6-Dimethyl-4-(4-trifluoromethoxy-benzyl)-piperazine-1-sulfonyl]-2-methyl-phenyl}-acetic acid] | > 5.30 | > 5.30 | < 4.00
C#Cc1cc(CC(=O)O)cc(S(=O)(=O)N2CCN(Cc3cccc(OC(F)(F)F)c3)CC2)c1 [Example 9, 2-{3-Ethynyl-5-[4-(3-trifluoromethoxybenzyl)piperazine-1-ylsulfonyl]phenyl}acetic acid] | > 5.30 | > 5.30 | > 5.30
Cc1ccc(S(=O)(=O)N2CCN(Cc3ccc(C(F)(F)F)cc3)CC2)cc1CC(=O)O [Example 4, {2-Methyl-5-[4-(4-trifluoromethyl-benzyl)-piperazine-1-sulfonyl]-phenyl}-acetic acid] | > 5.30 | > 5.30 | > 5.30
Cc1ccc(S(=O)(=O)N2CCN(Cc3ccc(OC(F)(F)F)cc3)CC2)cc1CC(=O)O [Example 3, {2-Methyl-5-[4-(4-trifluoromethoxy-benzyl)-piperazine-1-sulfonyl]-phenyl}-acetic acid] | > 5.30 | > 5.30 | > 5.30
Cc1cc(CC(=O)O)cc(S(=O)(=O)N2[C@H](C)CN(Cc3ccc(OC(F)(F)F)cc3)C[C@@H]2C)c1 [Example 5, {3-[2,6-Dimethyl-4-(4-trifluoromethoxy-benzyl)-piperazine-1-sulfonyl]-5-methyl-phenyl}-acetic acid] | 4.00 to 5.30 | > 5.30 | < 4.00

The next lines start with the values.

pEC50 (PPAR-alpha) | pEC50 (PPAR-delta) | pEC50 (PPAR-gamma) | SMILES
> 5.30 | > 5.30 | < 4.00 | Cc1ccc(S(=O)(=O)N2[C@H](C)CN(Cc3ccc(Cl)c(Cl)c3)C[C@@H]2C)cc1CC(=O)O [Example 7, {5-[4-(3,4-Dichloro-benzyl)-2,6-dimethyl-piperazine-1-sulfonyl]-2-methyl-phenyl}-acetic acid]
> 5.30 | > 5.30 | 4.00 to 5.30 | Cc1ccc(S(=O)(=O)N2[C@H](C)CN(Cc3ccc(C(F)(F)F)cc3)C[C@@H]2C)cc1CC(=O)O [Example 2, {5-[2,6-Dimethyl-4-(4-trifluoromethyl-benzyl)-piperazine-1-sulfonyl]-2-methyl-phenyl}-acetic acid]
< 4.00 | > 5.30 | < 4.00 | Cc1ccc(S(=O)(=O)N2[C@H](C)CN(C(=O)Cc3ccc(OC(F)(F)F)cc3)C[C@@H]2C)cc1CC(=O)O [Example 10, 2-(5-((2R,6S)-2,6-dimethyl-4-(2-(4-(trifluoromethoxy)phenyl)acetyl)piperazin-1-ylsulfonyl)-2-methylphenyl)acetic acid]
4.00 to 5.30 | > 5.30 | > 5.30 | C[C@@H]1CN(Cc2ccc(OC(F)(F)F)cc2)C[C@H](C)N1S(=O)(=O)c1cccc(CC(=O)O)c1 [Example 6, {3-[2,6-Dimethyl-4-(4-trifluoromethoxy-benzyl)-piperazine-1-sulfonyl]-phenyl}-acetic acid]
